# Assay: Solubility in toluene
# Assay type: physicochemical
# Conditions: 20 mg mixed with toluene (1 mL)
# From the text: B: Incompletely dissolved.
row,Compound,Solubility
1,CCCCCCCCCCCCc1cc2c(ccc3c2sc2c4ccc5sc(CCCCCCCCCCCC)cc5c4sc32)s1 [Compound 4],A (Completely dissolved.)
2,CCCCCCCCCCCCCCc1cc2sccc2c2sc3c(sc4c5ccsc5cc(CCCCCCCCCCCCCC)c43)c12 [Compound 40],A (Completely dissolved.)
3,CCCCCCCCCCCCc1cc2ccc3c(sc4c5ccc6cc(CCCCCCCCCCCC)sc6c5sc34)c2s1 [Compound 3],A (Completely dissolved.)
4,CCCCCCCCCCCCCCc1cc2ccsc2c2sc3c(sc4c5sccc5cc(CCCCCCCCCCCCCC)c43)c12 [Compound 39],A (Completely dissolved.)
5,CCCCCCCCC#Cc1cc2c(ccc3c2sc2c4ccc5sc(C#CCCCCCCCC)cc5c4sc32)s1 [Compound 30],A (Completely dissolved.)

# Other lines, results leading:
row,Solubility,Compound
1,A (Completely dissolved.),CCCCCCCCc1cc2ccc3c(sc4c5ccc6ccsc6c5sc34)c2s1 [Compound 43]
2,A (Completely dissolved.),CCCCCCCCOc1cc2c(ccc3c2sc2c4ccc5sc(OCCCCCCCC)cc5c4sc32)s1 [Compound 38]
3,A (Completely dissolved.),CCCCCCCCc1cc2ccc3c(sc4c5ccc6cc(CCCCCCCC)sc6c5sc34)c2s1 [Compound 1]
4,A (Completely dissolved.),CCCCCCCCOc1cc2ccc3c(sc4c5ccc6cc(OCCCCCCCC)sc6c5sc34)c2s1 [Compound 37]
5,A (Completely dissolved.),CCCCCCCCc1cc2c(ccc3c2sc2c4ccc5sc(CCCCCCCC)cc5c4sc32)s1 [Compound 2]
6,A (Completely dissolved.),CCCCCCCCc1cc2c(ccc3c2sc2c4ccc5sccc5c4sc32)s1 [Compound 44]
7,A (Completely dissolved.),CCCCCCCCC#Cc1cc2ccc3c(sc4c5ccc6cc(C#CCCCCCCCC)sc6c5sc34)c2s1 [Compound 29]

# Same assay, conditions: organic solvent or mixture, thermodynamic from solid; 20 mg mixed with toluene (1 mL); read-out: Solubility
row,Solubility [mg/mL],Compound
1,> 20,CC(C)CCCC(C)CCc1cc2ccc3c(sc4c5ccc6cc(CCC(C)CCCC(C)C)sc6c5sc34)c2s1 (centres unmarked) [Compound 5]
2,< 20,"c1cc2cc3sc4c5cc6sccc6cc5sc4c3cc2s1 [compound 4, reference compound]"
3,< 20,"Cn1ccc2c3sc4c5ccc6c(ccn6C)c5sc4c3ccc21 [compound 1, reference compound]"
4,< 20,"CCc1cc2cc3c(cc2s1)sc1c2cc4cc(CC)sc4cc2sc31 [compound 2, reference compound]"
5,< 20,"CCCC(C)n1ccc2c3sc4c5ccc6c(ccn6C(C)CCC)c5sc4c3ccc21 (centres unmarked) [compound 3, reference compound]"

# Source: patent US20160322588A1, “Organic Transistor, Compound, Organic Semiconductor Material for Non-Light-Emitting Organic Semiconductor Device, Material for Organic Transistor, Coating Solution for Non-Light-Emitting Organic Semiconductor Device, and Organic Semiconductor Film for Non-Light-Emitting Organic Semiconductor Device” (FUJIFILM Corporation, priority 2014, published 2016)
